In one data set the test system is C57BI6 mice. Put plainly: Reverse passive Arthus (RPA) reaction in mouse skin: skin swelling. In kind it is in vivo. The note with it: for Inhibition of the Arthus reaction (skin swelling): dosed 2 hours prior to induction, read at 3 hours. As for the experimental part: The effect of a single dose of LOU064 was tested in the acute mouse reverse passive Arthus (RPA) model to assess its effect on a dermal anaphylaxis reaction triggered by IgG immune complexes and mediated by FcGRIIl on mast cell.
Female C57BI6 mice (Charles River, France), 8-10 weeks of age, were used. The back of the mice was shaved 24 hours prior to the skin injections. This allowed any potential irritation of the skin to resolve. The Arthus reaction was triggered two hours after compound dosing in the dose-response study or at the timepoints noted in the time-course study. To elicit the Arthus reaction, 50 μl of PBS (control site) or polyclonal rabbit anti-ovalbumin IgG at a concentration of 30 μg in PBS (C6534, Sigma) was injected i.d. into the dorsal skin. The intradermal injection was followed immediately by an i.v. injection of 200 μl ovalbumin (20 mg/kg) in saline (05450 Fluka). Three hours after the injection of the ovalbumin the mice were killed, bled for monitoring of the compound concentration and the spleens removed for BTK occupancy measurement. The thickness of the injected control and anti-ovalbumin IgG skin sites was measured using a digital caliper, and the thickness of the anti-ovalbumin IgG injected sites minus the saline control sites were then calculated for the mice in all treatment groups.

The subject of another data set is BALB/c mice. The data set is described as follows: Ovalbumin induced anaphylaxis mouse model: BALF cell counts. The class given is in vivo. To be noted: 10 mg/kg, 30 mg/Kg p.o. B.I.D., OVA-sensitized mice with poly I:C. As for the experimental part: This experiment was carried out to investigate the anti-inflammatory effect of LOU064 (10 mg and 30 mg/Kg in OVA-sensitized mice instilleed with polyinosine-polycytidylic acid (poly I: C).
Mice were actively sensitised with ovalbumin (15 μg, s.c.) and 25 μL of Imject Alum on days 0, 7 and 14. In order to elicit a local inflammatory response in the lung, mice were repeatedly exposed on days 21-24 with an aerosol of 1% w/v ovalbumin in phosphate buffered saline (PBS), generated with an ultrasonic nebuliser (Aerogen) for 20 min. 16 h after the final exposure to OVA on day 24, polyinosine-polycytidylic acid (poly I: C, 100 μg/animal) or the vehicle (PBS) was delivered intratracheally with a Microsprayer (model IA-1C with FMJ-250 high pressure syringe, Penn-Century) under anaesthesia with ketamine (100 mg/Kg, i.p.) and xylazine (10 mg/Kg, i.p.). […]
24 h after the final OVA challenge, blood samples were collected by venepuncture into pre-chilled Li Hep tubes. […] The cell pellets were then re-suspended in 1.6 mL of phosphate buffered saline and the BAL cells were then analysed for total and differential numbers. Total and differential cell counts of the BAL fluid samples were measured using a XT-2000iV analyser (Sysmex). […]

Another data set deals with PBMC-derived mast cells. Put plainly: FcER-induced degranulation of PBMC-derived mast cells. The note with it: Homo sapiens, Mast cell; n=7 donors; read-out: IC50, degranulation of primary human PBMC-derived mast cells (β-tryptase). The class given is cell-based. The source says:
cells (PBMC)-derived mast cells Rationale and method: Primary human mast cells were derived from CD34-positive progenitor cells isolated from PBMC ((Neuberger, M.S. et al. (1985), Nature 314 (6008), pp 268-70. doi: 10.1038/314268a0). Blood from healthy volunteers was provided under informed consent and collected through the Novartis Tissue Donor Program in accordance with the Swiss Human Research Act and approval of the responsible ethic committee (Ethikkommission Nordwest-und Zentralschweiz). Briefly, CD34-positive cells were isolated from peripheral blood by positive selection and cultured in medium containing SCF, IL-6 and IL-3. After a 6 week differentiation culture, mast cells were harvested and characterized phenotypically for expression of c-Kit (CD117) and FcERI. The degranulation is based on NIP haptenized BSA and the NIP-specific chimeric IgE antibody JW8 (described in RD-2013-00412). The mast cells were sensitized with JW8 IgE antibody and then incubated with serial compound dilutions for 30 minutes at 37° C. Then degranulation was triggered by adding haptenized NIP-BSA to crosslink the FcER. After one hour, supernatants were collected and analyzed for β-tryptase levels.

A further data set has as its system patients with CSU. Put plainly: Phase 2b trial in CSU: efficacy. In kind it is in vivo, human. The note with it: 25 mg b.i.d. regimen, 12 weeks. As for the experimental part:
In a Phase 2b, randomized, double-blind, placebo-controlled trial evaluating the efficacy and safety of remibrutinib over 12 weeks in patients inadequately controlled by H1-antihistamines, with at least moderately active CSU, patients received remibrutinib 10 mg q.d. (once daily), 35 mg q.d., 100 mg q.d., 10 mg b.i.d. (twice daily), 25 mg b.i.d., 100 mg b.i.d., or placebo (1:1:1:1:1:1:1 ratio).

Data set [1] can be described thus: Co-administration with oral contraceptives. The class given is in vivo. The source says:
Therefore, in a preferred embodiment, LOU064 is co-administered with oral contraceptives.

1 molecule from US20250032488A1, “METHODS OF TREATMENT USING LOU064” (NOVARTIS AG, priority 2021, published 2025) can be followed below.

In general, IC50 refers to the point on the concentration scale where inhibition reaches its midpoint.

As to `C=CC(=O)N(C)CCOc1c(N)ncnc1-c1cc(F)cc(NC(=O)c2ccc(C3CC3)cc2F)c1C` [LOU064, N-(3-(6-amino-5-(2-(N-methylacrylamido)ethoxy)pyrimidin-4-yl)-5-fluoro-2-methylphenyl)-4-cyclopropyl-2-fluorobenzamide], the “Inhibition of skin swelling (time-course study)” value in the data set on C57BI6 mice (30 mg/kg p.o., Arthus reaction elicited 2 hours post dosing) worked out at 65.7%. Further, the “Inhibition of the Arthus reaction (skin swelling)” value in the data set on C57BI6 mice (30 mg/kg single p.o.) was 73%; in the data set with C57BI6 mice (100 mg/kg single p.o.) it was 61.2%. Further, in the data set with C57BI6 mice (single dose 30 mg/kg p.o.), the “Timepoint at which pharmacologic effect in the skin returned to vehicle levels” value was at most 45 hours. The “Numbers of cells involved in lung anaphylaxis (BALF)” value in the data set on BALB/c mice is listed as “significantly reduced”. Moreover, the IC50 with PBMC-derived mast cells came out at 5.7 nM. The “Efficacy in CSU” value with patients with CSU is listed as “particularly effective”. In addition, the “Impact on exposure and efficacy of oral contraceptives (ethinylestradiol or levonorgestrel)” value in data set [1] is reported as “without a major impact”.
